Common to all, as to details: incubation time: 72 h
Test [1] relates to CAL-120. In words: normalised viability (% of control), CellTiter-Blue; higher = more viable cells (about 100 = DMSO control). Here is the method: (§1)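 DSRT, CellTiter-Blue viability, 72 h incubation. Signal is normalised to DMSO and benzethonium chloride controls. Value is the normalised response at dose 3.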
Test [2] concerns CAL-51. The description is as above. As to the method:
as §1

Test [3] relates to CAL-85-1. The description is as above. As to the method: as §1
Test [4] concerns DU-4475. Described as above. Here is the method:
as §1

Test [5] concerns HCC1937. The description is as above. As to the method:
as §1

Test [6] relates to Hs578T. The test is described as above. As to the method: as §1
Test [7] has as its system MDA-MB-231. The test is described as above. As to the method: as §1
Test [8] relates to MDA-MB-468. The description is as above. As to the method:
as §1

Test [9] concerns MFM-223. The test is described as above. As to the method: as §1
For the next test, the system named is BT-474. Description: normalised viability (% of control), CellTiter-Blue; higher = more viable cells (about 100 = DMSO control). The method, boiled down: (§2)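 384-well plates were pre-loaded with compound in 5 µl medium before 20 µl of breast cancer cell suspension was seeded. Following 72 h incubation, 2.5 µl CellTiter-Blue reagent was added for 2 h at 37 °C. Fluorescence was read at 560/590 nm and plates were normalised to vehicle (100) and a positive kill control (0), checked by Z'-factor. Normalised viability is reported at a single listed concentration of the series.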
(Alamar Blue is a resazurin reagent that responds to reducing activity.)

For a further test, the system named is BT-549. Described as above. The gist of the method:
as §2

In test [10] the test system is CAL-120. The description is as above. The method, boiled down: as §2
The source holds these as a separate data set.

In the next test the test system is CAL-148. The test is described as above. The method, boiled down: as §2
Test [11] relates to CAL-51. The description is as above. The gist of the method: as §2
The source holds these as a separate data set.

The test system of test [12] is CAL-85-1. The test is described as above. The method, boiled down:
as §2
This is another data set of the same source.

In test [13] the test system is DU-4475. Described as above. The method, boiled down: as §2
The source holds these as a separate data set.

Another test deals with HCC1143. The test is described as above. The method, boiled down:
as §2

Another test deals with HCC1599. The description is as above. The method, boiled down: as §2
Test [14] deals with HCC1937. The description is as above. The method, boiled down: as §2
The source holds these as a separate data set.

Test [15] concerns HDQ-P1. Described as above. The method, boiled down: as §2
The subject of test [16] is Hs578T. Described as above. The method, boiled down:
as §2
The source holds these as a separate data set.

The test system of test [17] is MDA-MB-231. The test is described as above. The method, boiled down: as §2
This is another data set of the same source.

The subject of a further test is MDA-MB-436. The description is as above. The method, boiled down:
as §2

Test [18] deals with MDA-MB-453. Described as above. The gist of the method: as §2
Test [19] concerns MDA-MB-468. Described as above. The gist of the method: as §2
This is another data set of the same source.

Test [20] deals with MFM-223. The test is described as above. The gist of the method: as §2
This is another data set of the same source.

Test [21] relates to SK-BR-3. Described as above. The gist of the method: as §2
The test system of test [22] is CAL-51. Description: drug sensitivity score (DSS), CellTiter-Glo (DSS (AUC-based score)); higher = stronger drug effect (viability inhibition or cytotoxicity); extreme values may be limits of the assay. The gist of the method: (§3)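 In 384-well plates, compound was laid out at 5 concentrations in 10-fold steps over a 10,000-fold range specific to each compound, and breast cancer cell lines were seeded on top in 20 µl suspension for a 72 h incubation. CellTox Green fluorescence and then CellTiter-Glo luminescence were read, and each plate was normalised to 0.1 % DMSO and a positive kill control. The drug sensitivity score was calculated from the area under the fitted dose-response curve.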
(In general: In ATP-based viability assays light output follows the ATP content of the culture.)

For test [23], the system named is HDQ-P1. The test is described as above. The gist of the method: as §3
In test [24] the test system is MDA-MB-453. The description is as above. The gist of the method: as §3
In test [25] the test system is SK-BR-3. The test is described as above. The gist of the method:
as §3

The structures appear in SMILES notation. Values joined by “and” are separate entries in the source; they are usually repeats but may differ in a detail not shown here. Equal entries are not always repeated.

Consider `O=C(O)CCCc1ccc(N(CCCl)CCCl)cc1` [Chlorambucil], for which the normalised viability in the test on CAL-120 [1] (100 nM) turned out to be 109%; in the test with CAL-51 [2] (10 nM), 107%; in the test with CAL-85-1 [3] (10 nM), 96%; in the test on DU-4475 [4] (10 nM), 109%; with HCC1937 [5] (100 nM) it was 87.9%; with Hs578T [6] (100 nM), 106%. The normalised viability stood at 103% in the test with MDA-MB-231 [7] (100 nM); 99.8% in the test on MDA-MB-468 [8] (100 nM); 95.5% in the test with MFM-223 [9] (100 nM); 112% in the test on BT-474 (1000 nM); 102% with BT-549 (1000 nM); 98.5% in the test on CAL-120 [10] (1000 nM). Besides, the normalised viability in the test with CAL-148 (30 nM) was found to be 104%; with CAL-51 [11] (30 nM), 112%; in the test on CAL-85-1 [12] (30 nM), 92.7%; in the test on DU-4475 [13] (30 nM), 92%; in the test with HCC1143 (1000 nM), 93.9%; in the test on HCC1599 (1000 nM), 97.1%. In addition, the normalised viability in the test on HCC1937 [14] (1000 nM) is 68.7%; in the test with HDQ-P1 [15] (30 nM), 94.1%; in the test with Hs578T [16] (1000 nM), 102%; in the test on MDA-MB-231 [17] (1000 nM), 109%; in the test with MDA-MB-436 (1000 nM), 91.8%; in the test on MDA-MB-453 [18] (30 nM), 94.3%. The normalised viability in the test with MDA-MB-468 [19] (1000 nM) turned out to be 68.3%; with MFM-223 [20] (1000 nM), 106%; in the test on SK-BR-3 [21] (1000 nM) it was 105%. Further, the drug sensitivity score with CAL-51 [22], with HDQ-P1 [23], in the test on MDA-MB-453 [24] and with SK-BR-3 [25] was 0 throughout.
Take `Cn1c(=O)n(-c2ccc(C(C)(C)C#N)cc2)c2c3cc(-c4cnc5ccccc5c4)ccc3ncc21` [Dactolisib]: the drug sensitivity score with CAL-51 [22] came to 16.8; in the test with HDQ-P1 [23] it was 10.7; in the test with MDA-MB-453 [24], 14.7; in the test with SK-BR-3 [25], 16.2.
In the case of `CO[C@H]1C[C@@H]2CC[C@@H](C)[C@@](O)(O2)C(=O)C(=O)N2CCCC[C@H]2C(=O)O[C@H]([C@H](C)C[C@@H]2CC[C@@H](OCCO)[C@H](OC)C2)CC(=O)[C@H](C)/C=C(\C)[C@@H](O)[C@@H](OC)C(=O)[C@H](C)C[C@H](C)/C=C/C=C/C=C/1C` [Everolimus], the normalised viability in the test with CAL-120 [1] (10 nM) was 55.3% and 43%; in the test with CAL-51 [2] (1 nM) it was 70.1% and 73.5%; with CAL-85-1 [3] (1 nM) it was 71.8% and 59.9%; in the test on DU-4475 [4] (1 nM), 96.6% and 83.4%; in the test on HCC1937 [5] (10 nM), 60.5% and 63.5%; in the test on Hs578T [6] (10 nM), 42.7% and 48.8%. Also, the normalised viability in the test with MDA-MB-231 [7] (10 nM) was 92.7% and 69.3%; in the test with MDA-MB-468 [8] (10 nM), 84.1% and 59.7%; in the test on MFM-223 [9] (10 nM) it was 55.1% and 49%; in the test with BT-474 (100 nM), 65.9% and 57.5%; in the test with BT-549 (100 nM) it was 62.1% and 54.9%; in the test with CAL-120 [10] (100 nM) it was 54.1% and 36.7%. In addition, the normalised viability in the test on CAL-148 (3 nM) is 50.4% and 48.4%; in the test on CAL-51 [11] (3 nM), 49.6% and 52.9%; in the test on CAL-85-1 [12] (3 nM), 63.9% and 54%; in the test on HCC1599 (100 nM), 87% and 69.7%; with HCC1937 [14] (100 nM) it was 48.8% and 48.4%; with HDQ-P1 [15] (3 nM) it was 71.3% and 59.9%. In addition, the normalised viability was 62.4% and 51% in the test with Hs578T [16] (100 nM); 48.1% and 68.9% in the test with MDA-MB-231 [17] (100 nM); 30.8% and 28.6% in the test with MDA-MB-453 [18] (3 nM); 72.6% and 66.8% in the test with MDA-MB-468 [19] (100 nM); 50% and 45.1% in the test on MFM-223 [20] (100 nM); 59.7% and 44.4% with SK-BR-3 [21] (100 nM). Further, the drug sensitivity score in the test on CAL-51 [22] was found to be 9.8; in the test on HDQ-P1 [23], 3.41; in the test with MDA-MB-453 [24] it was 10; in the test with SK-BR-3 [25] it was 12.7.
`Cc1cc2c(C(C)C)c(O)c(O)c(C=O)c2c(O)c1-c1c(C)cc2c(C(C)C)c(O)c(O)c(C=O)c2c1O` [Gossypol]: the normalised viability with CAL-120 [1] (1000 nM) was found to be 112%; in the test on CAL-51 [2] (100 nM) it was 96.5%; with CAL-85-1 [3] (100 nM), 97.3%; in the test with DU-4475 [4] (100 nM), 99.7%; in the test on HCC1937 [5] (1000 nM) it was 91.7%; in the test with Hs578T [6] (1000 nM), 100%. Moreover, the normalised viability in the test on MDA-MB-231 [7] (1000 nM) came to 93.6%; in the test with MDA-MB-468 [8] (1000 nM), 58.1%; in the test on MFM-223 [9] (1000 nM), 96.5%; in the test with BT-474 (10000 nM) it was 21.5%; in the test on BT-549 (10000 nM), 19.5%; in the test on CAL-120 [10] (10000 nM) it was 37.5%. The normalised viability in the test on CAL-148 (300 nM) worked out at 109%; in the test on CAL-51 [11] (300 nM), 94.2%; in the test on CAL-85-1 [12] (300 nM) it was 87.3%; in the test on DU-4475 [13] (300 nM), 93.9%; in the test with HCC1143 (10000 nM), 49%; with HCC1599 (10000 nM) it was 47.2%. The normalised viability with HCC1937 [14] (10000 nM) is 23.3%; in the test with HDQ-P1 [15] (300 nM), 141%; in the test with Hs578T [16] (10000 nM), 6%; in the test with MDA-MB-231 [17] (10000 nM), 22.8%; in the test with MDA-MB-436 (10000 nM) it was 14.9%; in the test on MDA-MB-453 [18] (300 nM) it was 103%. Besides, the normalised viability was determined as 6.5% in the test on MDA-MB-468 [19] (10000 nM), 23.3% in the test on MFM-223 [20] (10000 nM) and 28.6% with SK-BR-3 [21] (10000 nM).

Values taken from the supplement of paper PMC4862054.
